Experiments:
recombinant human MAO-A = target: T1, recombinant human MAO-A (Homo sapiens, UniProt P21397); experiment: Human MAO-A inhibitory assay (kynuramine, fluorescence of 4-hydroxyquinoline); format: biochemical; conditions: for Ki: from IC50 by Cheng–Prusoff, Km 16.1 μM; for Si MAO-A (selectivity index between MAO-A and MAO-B): ratio of Ki values; for IC50: recombinant human MAO-A, kynuramine, pH 7.4, 37 °C, 20 min, mean ± SD
T1 construct: purchased Sigma-Aldrich
T1 sequence (P21397 1-527): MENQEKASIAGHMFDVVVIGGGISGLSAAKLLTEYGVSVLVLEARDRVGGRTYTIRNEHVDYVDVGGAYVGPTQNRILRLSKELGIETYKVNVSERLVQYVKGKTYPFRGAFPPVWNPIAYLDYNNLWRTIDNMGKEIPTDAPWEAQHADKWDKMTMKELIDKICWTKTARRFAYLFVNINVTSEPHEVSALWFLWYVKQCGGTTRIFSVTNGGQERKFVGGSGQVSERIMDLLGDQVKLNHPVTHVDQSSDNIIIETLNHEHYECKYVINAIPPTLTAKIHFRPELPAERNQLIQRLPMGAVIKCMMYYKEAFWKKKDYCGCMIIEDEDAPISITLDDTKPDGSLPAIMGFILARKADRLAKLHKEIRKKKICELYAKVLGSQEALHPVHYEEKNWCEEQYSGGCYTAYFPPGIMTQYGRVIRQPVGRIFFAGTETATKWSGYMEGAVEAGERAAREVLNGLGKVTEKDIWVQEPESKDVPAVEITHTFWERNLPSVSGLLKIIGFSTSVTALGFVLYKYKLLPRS
Experimental: (§1) The crude ethanol extract of A. philoxeroides, together with its constituents, alternanthin (1a), althernanthin B (1b), torosaflavone E (3a), dimethyltorosaflavone D (3b) and chrysoeriol 7-rhamnoside (5) were tested for their inhibitory activity on MAO-A and MAO-B, using the recombinant human MAO-A and MAO-B. The rates of MAO catalysis was determined by measuring the production of 4-hydroxyquinoline by fluorescence spectrophotometry. […] For this purpose, Km values for the oxidation of kynuramine by MAO-A and MAO-B were used from previous studies, i.e., 16.1 μM for human MAO-A and 22.7 μM for human MAO-B [15].
(§2) The MAOs inhibitory activity assay of the A. philoxeroides extract and some of its flavonoid constituents, using recombinant human MAO-A and MAO-B (Sigma-Aldrich, St. Louis, MO, USA) as enzyme sources, was performed according to the method described by Manley-King et al.. Briefly, the crude extract 100 mg was dissolved in 400 µL DMSO to prepare 250 mg/mL as a stock solution. Serial dilution of test samples (20 µL) for each concentration was used to test the activity. For 1a, 1b, 3a, 3b and 5, a stock solution of 1000 μM in DMSO was prepared and a serial dilution of the test sample (20 μL) of each concentration was used to test the activity. Concentration of MAOs was 0.0075 mg/mL for MAO-A inhibitor test, 9 µL of kynuramine (Sigma-Aldrich, St. Louis, MO, USA) was mixed with 469.5 µL of potassium phosphate buffer (pH 7.4). For MAO-B inhibitor test, 6 µL of kynuramine was mixed with 472.5 µL of potassium phosphate buffer (pH 7.4). Then 1.5 µL of the enzymes were added before incubation at 37 °C for 20 min. The reaction was stopped by adding 400 µL of 2N NaOH and 1000 µL of water. Measurement of 4-hydroxyquinoline (Sigma-Aldrich, St. Louis, MO, USA) was carried out by fluorescence spectrophotometry with the excitation wavelength at 310 nm and the emission wavelength at 400 nm. […] Data were analyzed by Prism 5 software package (GraphPad Software, version 5, San Diego, CA, USA). The IC50 values were converted to the corresponding Ki values according to the equation Ki = IC50/(1+[S]/Km).

recombinant human MAO-B = target: T2, recombinant human MAO-B (Homo sapiens, UniProt P27338); experiment: Human MAO-B inhibitory assay (kynuramine, fluorescence of 4-hydroxyquinoline); format: biochemical; conditions: for Ki: from IC50 by Cheng–Prusoff, Km 22.7 μM; for Si MAO-B (selectivity index between MAO-A and MAO-B): ratio of Ki values; for Isoform selectivity from the selectivity index, MAO-B: based on Si; for IC50: recombinant human MAO-B, kynuramine, pH 7.4, 37 °C, 20 min, mean ± SD
T2 construct: purchased Sigma-Aldrich
T2 sequence (P27338 1-520): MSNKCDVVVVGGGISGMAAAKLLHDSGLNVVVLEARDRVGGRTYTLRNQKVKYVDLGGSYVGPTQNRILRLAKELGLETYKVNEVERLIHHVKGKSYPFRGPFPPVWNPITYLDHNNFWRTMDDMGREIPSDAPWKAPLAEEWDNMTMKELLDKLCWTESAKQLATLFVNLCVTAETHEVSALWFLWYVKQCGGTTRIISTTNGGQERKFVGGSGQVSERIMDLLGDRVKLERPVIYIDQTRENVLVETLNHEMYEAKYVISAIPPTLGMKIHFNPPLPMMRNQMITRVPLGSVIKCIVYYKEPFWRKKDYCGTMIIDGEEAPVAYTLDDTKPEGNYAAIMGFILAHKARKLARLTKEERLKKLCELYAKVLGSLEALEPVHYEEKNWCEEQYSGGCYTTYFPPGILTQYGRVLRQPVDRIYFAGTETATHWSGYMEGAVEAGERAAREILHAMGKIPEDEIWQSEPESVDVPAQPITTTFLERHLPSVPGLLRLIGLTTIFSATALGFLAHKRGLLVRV
Experimental: as §1, §2

Row | Structure (SMILES) | Isoform selectivity from the selectivity index, MAO-A (recombinant human MAO-A; based on Si) | Ki (recombinant human MAO-A) [nM] | Si MAO-A (selectivity index between MAO-A and MAO-B) (recombinant human MAO-A) | Ki (recombinant human MAO-B) [nM] | Si MAO-B (selectivity index between MAO-A and MAO-B) (recombinant human MAO-B) | IC50 (recombinant human MAO-A) [nM] | Isoform selectivity from the selectivity index, MAO-B (recombinant human MAO-B) | melting point [°C] | IC50 (recombinant human MAO-B) [nM]
1 | COc1cc(-c2cc(=O)c3c(O)c([C@H]4C[C@H](O)[C@@H](O)[C@@H](C)O4)c(O)cc3o2)ccc1O [Compound 1a, altheranthin] | partially selective for MAO-A isoform | 0.12 | 0.4681 | 0.26 | 2.1364 |  |  |  | 
2 | C[C@H]1O[C@@H](c2c(O)cc3oc(-c4ccc(O)c(O)c4)cc(=O)c3c2O)C[C@H](O)[C@H]1O [Compound 1b, alternanthin B] |  | 0.54 | 5.6681 | 0.1 | 0.1764 | 2.06 | partially selective for MAO-B isoform |  | 
3 | COc1cc(-c2cc(=O)c3c(O)c(/C=C/C(=O)O)c(O)cc3o2)ccc1O [Compound 3a, torosaflavone E] |  | 4840 | 16.6534 | 290 | 0.0601 | 18400 ± 1470 | partially selective for MAO-B isoform | 250 to 252 | 675 ± 460
4 | O=C(O)/C=C/c1c(O)cc2oc(-c3ccc(O)c(O)c3)cc(=O)c2c1O [Compound 3b, demethyltorosaflavone D] |  | 133 | 2.3850 | 55.7 | 0.4193 |  | partially selective for MAO-B isoform |  | 129
5 | COc1cc(-c2cc(=O)c3c(O)cc(O[C@@H]4O[C@@H](C)[C@H](O)[C@@H](O)[C@H]4O)cc3o2)ccc1O [Compound 5, chrysoeriol 7-O-rhamnoside] |  | 804 | 3.4303 | 234 | 0.2915 | 3050 ± 350 | partially selective for MAO-B isoform |  | 544 ± 330

Reference: article PMC6225253, “Chemical Constituents and Antidepressant-Like Effects in Ovariectomized Mice of the Ethanol Extract of Alternanthera philoxeroides” (Molecules : A Journal of Synthetic Chemistry and Natural …, 2018)
